# Laboratory results: ChEMBL document CHEMBL3885881, “DrugMatrix”
# Species: Rattus norvegicus
# Assay: DrugMatrix - Regimen: Daily Repeat
# Assay type: toxicity, organism-based, Sprague-Dawley
# Parameters: regimen Daily Repeat, gender Male, age 6-8 weeks
# Details: in vivo, po, route oral GAVAGE, vehicle 100 % WATER; for ABSOLUTE BASOPHIL / ABSOLUTE EOSINOPHIL / ABSOLUTE LYMPHOCYTE / ABSOLUTE MONOCYTE / ABSOLUTE SEGMENTED NEUTROPHIL / BASOPHIL / EOSINOPHIL / ERYTHROCYTE COUNT / HEMATOCRIT / HEMOGLOBIN / LEUKOCYTE COUNT / LYMPHOCYTE / MEAN CORPUSCULAR HEMOGLOBIN / MEAN CORPUSCULAR HEMOGLOBIN CONCENTRATION / MEAN CORPUSCULAR VOLUME / MONOCYTE / NEUTROPHIL / NUCLEATED RED BLOOD CELLS / PLATELET COUNT: tissue Blood; for ALANINE AMINOTRANSFERASE / ALKALINE PHOSPHATASE / ASPARTATE AMINOTRANSFERASE / BLOOD UREA NITROGEN / CARBON DIOXIDE / CHLORIDE / CHOLESTEROL / CREATINE PHOSPHOKINASE / CREATININE / GLUCOSE / LACTATE DEHYDROGENASE / LIPASE / PHOSPHORUS / POTASSIUM / SODIUM / TOTAL BILIRUBIN / TOTAL PROTEIN / URIC ACID: tissue Plasma
# [1] = 0 mg/kg, 72 h, dose level Control, time 3 day
# [2] = 0 mg/kg, 120 h, dose level Control, time 5 day
# [3] = 46 mg/kg, 72 h, dose level Low, time 3 day
# [4] = 46 mg/kg, 120 h, dose level Low, time 5 day
smiles,measurement,setting,value
O=C1NC(=O)C(c2ccccc2)(c2ccccc2)N1 [PHENYTOIN],ABSOLUTE BASOPHIL,[1],0 CELLS/uL
same,ABSOLUTE EOSINOPHIL,[1],123.17 CELLS/uL
same,ABSOLUTE LYMPHOCYTE,[1],12677.83 CELLS/uL
same,ABSOLUTE MONOCYTE,[1],66.17 CELLS/uL
same,ABSOLUTE SEGMENTED NEUTROPHIL,[1],1149.5 CELLS/uL
same,BASOPHIL,[1],0%
same,EOSINOPHIL,[1],0.83%
same,ERYTHROCYTE COUNT,[1],5.26 x10E6/uL
same,HEMATOCRIT,[1],33.07%
same,HEMOGLOBIN,[1],13.43 G/DL
same,LEUKOCYTE COUNT,[1],14.02 x10E3/uL
same,LYMPHOCYTE,[1],90.17%
same,MEAN CORPUSCULAR HEMOGLOBIN,[1],25.62 pg
same,MEAN CORPUSCULAR HEMOGLOBIN CONCENTRATION,[1],40.65 G/DL
same,MEAN CORPUSCULAR VOLUME,[1],63 fL
same,MONOCYTE,[1],0.5%
same,NEUTROPHIL,[1],8.5%
same,NUCLEATED RED BLOOD CELLS,[1],0.17 /100WBC
same,PLATELET COUNT,[1],1142.83 x10E3/uL
same,ALANINE AMINOTRANSFERASE,[1],45.17 u/L
same,ALKALINE PHOSPHATASE,[1],340.17 u/L
same,ASPARTATE AMINOTRANSFERASE,[1],77.33 u/L
same,BLOOD UREA NITROGEN,[1],14.67 mg/dL
same,CARBON DIOXIDE,[1],28.67 mmol/L
same,CHLORIDE,[1],101.17 MEQ/L
same,CHOLESTEROL,[1],77.67 mg/dL
same,CREATINE PHOSPHOKINASE,[1],263.67 u/L
same,CREATININE,[1],0.15 mg/dL
same,GLUCOSE,[1],169.33 mg/dL
same,LACTATE DEHYDROGENASE,[1],230 u/L
same,LIPASE,[1],9.67 u/L
same,PHOSPHORUS,[1],11.8 mg/dL
same,POTASSIUM,[1],5.91 MEQ/L
same,SODIUM,[1],142.88 MEQ/L
same,TOTAL BILIRUBIN,[1],0.22 mg/dL
same,TOTAL PROTEIN,[1],5.7 G/DL
same,URIC ACID,[1],1.35 mg/dL
same,ABSOLUTE BASOPHIL,[2],0 CELLS/uL
same,ABSOLUTE EOSINOPHIL,[2],125 CELLS/uL
same,ABSOLUTE LYMPHOCYTE,[2],13809 CELLS/uL
same,ABSOLUTE MONOCYTE,[2],351 CELLS/uL
same,ABSOLUTE SEGMENTED NEUTROPHIL,[2],1581.67 CELLS/uL
same,BASOPHIL,[2],0%
same,EOSINOPHIL,[2],0.67%
same,ERYTHROCYTE COUNT,[2],5.53 x10E6/uL
same,HEMATOCRIT,[2],34.83%
same,HEMOGLOBIN,[2],13.9 G/DL
same,LEUKOCYTE COUNT,[2],15.87 x10E3/uL
same,LYMPHOCYTE,[2],87.5%
same,MEAN CORPUSCULAR HEMOGLOBIN,[2],25.25 pg
same,MEAN CORPUSCULAR HEMOGLOBIN CONCENTRATION,[2],40.08 G/DL
same,MEAN CORPUSCULAR VOLUME,[2],63.05 fL
same,MONOCYTE,[2],2.17%
same,NEUTROPHIL,[2],9.67%
same,NUCLEATED RED BLOOD CELLS,[2],0 /100WBC
same,PLATELET COUNT,[2],1044 x10E3/uL
same,ALANINE AMINOTRANSFERASE,[2],50.67 u/L
same,ALKALINE PHOSPHATASE,[2],395 u/L
same,ASPARTATE AMINOTRANSFERASE,[2],86 u/L
same,BLOOD UREA NITROGEN,[2],15.33 mg/dL
same,CARBON DIOXIDE,[2],29.33 mmol/L
same,CHLORIDE,[2],101.5 MEQ/L
same,CHOLESTEROL,[2],71.33 mg/dL
same,CREATINE PHOSPHOKINASE,[2],323.17 u/L
same,CREATININE,[2],0.18 mg/dL
same,GLUCOSE,[2],145.67 mg/dL
same,LACTATE DEHYDROGENASE,[2],389.5 u/L
same,LIPASE,[2],9.83 u/L
same,PHOSPHORUS,[2],11.35 mg/dL
same,POTASSIUM,[2],6.39 MEQ/L
same,SODIUM,[2],142.77 MEQ/L
same,TOTAL BILIRUBIN,[2],0.18 mg/dL
same,TOTAL PROTEIN,[2],6.1 G/DL
same,URIC ACID,[2],1.52 mg/dL
same,ABSOLUTE BASOPHIL,[3],0 CELLS/uL
same,ABSOLUTE EOSINOPHIL,[3],0 CELLS/uL
same,ABSOLUTE LYMPHOCYTE,[3],15884.67 CELLS/uL
same,ABSOLUTE MONOCYTE,[3],0 CELLS/uL
same,ABSOLUTE SEGMENTED NEUTROPHIL,[3],1248.67 CELLS/uL
same,BASOPHIL,[3],0%
same,EOSINOPHIL,[3],0%
same,ERYTHROCYTE COUNT,[3],5.58 x10E6/uL
same,HEMATOCRIT,[3],35.6%
same,HEMOGLOBIN,[3],14.27 G/DL
same,LEUKOCYTE COUNT,[3],17.13 x10E3/uL
same,LYMPHOCYTE,[3],93%
same,MEAN CORPUSCULAR HEMOGLOBIN,[3],25.63 pg
same,MEAN CORPUSCULAR HEMOGLOBIN CONCENTRATION,[3],40.1 G/DL
same,MEAN CORPUSCULAR VOLUME,[3],63.9 fL
same,MONOCYTE,[3],0%
same,NEUTROPHIL,[3],7%
same,NUCLEATED RED BLOOD CELLS,[3],0 /100WBC
same,PLATELET COUNT,[3],1336.33 x10E3/uL
same,ALANINE AMINOTRANSFERASE,[3],48.67 u/L
same,ALKALINE PHOSPHATASE,[3],344.67 u/L
same,ASPARTATE AMINOTRANSFERASE,[3],69.33 u/L
same,BLOOD UREA NITROGEN,[3],13.67 mg/dL
same,CARBON DIOXIDE,[3],33.67 mmol/L
same,CHLORIDE,[3],99.67 MEQ/L
same,CHOLESTEROL,[3],68.67 mg/dL
same,CREATINE PHOSPHOKINASE,[3],151.67 u/L
same,CREATININE,[3],0.12 mg/dL
same,GLUCOSE,[3],146 mg/dL
same,LACTATE DEHYDROGENASE,[3],81.33 u/L
same,LIPASE,[3],10 u/L
same,PHOSPHORUS,[3],11.37 mg/dL
same,POTASSIUM,[3],6.96 MEQ/L
same,SODIUM,[3],142.8 MEQ/L
same,TOTAL BILIRUBIN,[3],0.2 mg/dL
same,TOTAL PROTEIN,[3],5.7 G/DL
same,URIC ACID,[3],1.53 mg/dL
same,ABSOLUTE BASOPHIL,[4],0 CELLS/uL
same,ABSOLUTE EOSINOPHIL,[4],40.67 CELLS/uL
same,ABSOLUTE LYMPHOCYTE,[4],11032 CELLS/uL
same,ABSOLUTE MONOCYTE,[4],233.67 CELLS/uL
same,ABSOLUTE SEGMENTED NEUTROPHIL,[4],793.67 CELLS/uL
same,BASOPHIL,[4],0%
same,EOSINOPHIL,[4],0.33%
same,ERYTHROCYTE COUNT,[4],5.47 x10E6/uL
same,HEMATOCRIT,[4],33.93%
same,HEMOGLOBIN,[4],13.63 G/DL
same,LEUKOCYTE COUNT,[4],12.1 x10E3/uL
same,LYMPHOCYTE,[4],91.33%
same,MEAN CORPUSCULAR HEMOGLOBIN,[4],24.93 pg
same,MEAN CORPUSCULAR HEMOGLOBIN CONCENTRATION,[4],40.17 G/DL
same,MEAN CORPUSCULAR VOLUME,[4],62 fL
same,MONOCYTE,[4],2%
same,NEUTROPHIL,[4],6.33%
same,NUCLEATED RED BLOOD CELLS,[4],0 /100WBC
same,PLATELET COUNT,[4],1416.33 x10E3/uL
same,ALANINE AMINOTRANSFERASE,[4],54 u/L
same,ALKALINE PHOSPHATASE,[4],319.67 u/L
same,ASPARTATE AMINOTRANSFERASE,[4],264.33 u/L
same,BLOOD UREA NITROGEN,[4],17 mg/dL
same,CARBON DIOXIDE,[4],24.67 mmol/L
same,CHLORIDE,[4],104.33 MEQ/L
same,CHOLESTEROL,[4],61.67 mg/dL
same,CREATINE PHOSPHOKINASE,[4],2442.67 u/L
same,CREATININE,[4],0.27 mg/dL
same,GLUCOSE,[4],152 mg/dL
same,LACTATE DEHYDROGENASE,[4],827.67 u/L
same,LIPASE,[4],10.67 u/L
same,PHOSPHORUS,[4],13.43 mg/dL
same,POTASSIUM,[4],7.35 MEQ/L
same,SODIUM,[4],144.9 MEQ/L
same,TOTAL BILIRUBIN,[4],0.2 mg/dL
same,TOTAL PROTEIN,[4],6 G/DL
same,URIC ACID,[4],3.3 mg/dL
